Laboratory results reported in patent US20240317727A1 (Duke University, priority 2018, published 2024).
pIC50: −log10 of the molar value. Like-named read-outs stand apart in the source and are kept apart here.

Key:
[1] = test system: C4-2 prostate cancer cells; assay: C4-2 cell proliferation, Cell Titre Glo; type: cell-based; conditions: Homo sapiens, 48-hour period, 9-point dilution series, read-out: Cell Viability IC50
Method: Next, cell viability of C4-2 prostate cancer cells was determined. C4-2 prostate cancer cells were grown in RMPI-1640 (no L-glutamine, Gibco 21870076) supplemented with 10% fetal bovine […] (non-heat-inactivated, Cytiva Hyclone SH30071.03). […] A 9-point dilution series was used to assess the ability of each compound to inhibit the growth of C4-2 prostate cancer cells over a 48-hour period, as compared to negative control solvent, DMSO. Cell proliferation was measured by the Cell Titre Glo assay using 384 well microtiter plate reader to quantitate luminescence. The IC50 was determined from the values obtained.

[2] = target: T1, purified recombinant human HSF1 (HSF1 DNA binding domain) (Homo sapiens, UniProt Q00613); assay: Melting temperature of HSF1 DBD with HSF1 degrader compounds (Sypro orange); conditions: read-out: ΔTm (° C.)
T1 sequence (Q00613 15-120): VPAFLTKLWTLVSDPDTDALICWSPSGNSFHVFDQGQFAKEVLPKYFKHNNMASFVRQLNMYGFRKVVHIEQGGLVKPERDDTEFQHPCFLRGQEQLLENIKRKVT
Method: The melting temperature (ΔTm) for purified recombinant human HSF1 (HSF1 DNA binding domain) was determined in the presence of HSF1 degrader compounds shown in Table 5 and compared to the solvent DMSO. Sypro orange dye was added to the HSF1 DBD (5 micromolar final concentration) in buffer, mixed and distributed to wells in 384 well microtiter plates. HSF1 degrader compound (12.5 micromolar) or DMSO solvent was added to three replicate wells per compound concentration, mixed and plates loaded into a Quant Studio thermnocycler and run on a temperature gradient from 25° C. to 85° C. with increments of 0.5° C. steps. Melting curves were obtained and analyzed using the ThermnoFisher Shift Software 1.4 fitted with a Boltzmann equation to determine the change in melting temperature of the protein in the presence of DMSO as compared to compound. The difference in the melting temperature under these two conditions was assigned as the change in melting temperature of ΔTm.

[3] = target: T2, recombinant HSF1 DNA-binding domain (DBD) (Homo sapiens, UniProt Q00613); assay: Differential Scanning Fluorimetry (DSF), HSF1 DBD melting temperature; conditions: Table 3; 5 μM HSF1 DBD, 25PM Compound; positive = stabilizes, negative = destabilizes HSF1
T2 sequence (Q00613 15-120): T1 sequence (Q00613 15-120)

[4] = 12.5 micromolar compound, 5 micromolar HSF1 DBD, compared to DMSO

SMILES | pIC50 [1] | ΔTm at 12.5 µM [2, 4] | ΔTm at 12.5 µM [2] | ΔTm at 25 µM [3]
N#Cc1cccc(NC(=O)Nc2ccc(Cl)c([N+](=O)[O-])c2)c1 [Compound 238, 1-(4-chloro-3-nitrophenyl)-3-(3-cyanophenyl)urea] | 5.51 | 3.49 °C | – | –
N#Cc1ccc(NC(=O)Nc2ccc(Cl)c([N+](=O)[O-])c2)cc1 [Compound 239, 1-(4-chloro-3-nitrophenyl)-3-(4-cyanophenyl)urea] | 5.53 | 3.13 °C | – | –
N#Cc1ccc(NC(=O)Nc2ccc(Cl)c([N+](=O)[O-])c2)cc1C(F)(F)F [Compound 240, 1-(4-chloro-3-nitrophenyl)-3-(4-cyano-3-(trifluoromethyl)phenyl)urea] | 6.25 | – | 3.01 °C | –
COc1cc(NC(=O)Nc2ccc(Cl)c([N+](=O)[O-])c2)ccc1C#N [Compound 241, 1-(4-chloro-3-nitrophenyl)-3-(4-cyano-3-methoxyphenyl)urea] | 5.25 | 2.63 °C | – | –
N#Cc1ccc(NC(=O)Nc2ccc3occc3c2)cc1 [Compound 246, 1-(benzofuran-5-yl)-3-(4-cyanophenyl)urea] | < 5.00 | 3.23 °C | – | –
COc1cc(NC(=O)Nc2ccc(Cl)c(S(=O)(=O)C(F)(F)F)c2)ccc1C#N [Compound 248, 1-(4-chloro-3-((trifluoromethyl)sulfonyl)phenyl)-3-(4-cyano-3-methoxyphenyl)urea] | 5.49 | 2.95 °C | – | –
COc1cc(NC(=O)Nc2ccc3c(c2)S(=O)(=O)C=C3)ccc1C#N [Compound 249, 1-(4-cyano-3-methoxyphenyl)-3-(1,1-dioxidobenzo[b]thiophen-6-yl)urea] | 5.34 | 1.5 °C | – | –
COc1cc(NC(=O)Nc2ccc3nsnc3c2)ccc1C#N [Compound 250, 1-(benzo[c][1,2,5]thiadiazol-5-yl)-3-(4-cyano-3-methoxyphenyl)urea] | < 5.00 | 1.3 °C | – | –
COc1cc(NC(=O)Nc2ccc3occc3c2)ccc1C#N [Compound 251] | < 5.00 | 2.06 °C | – | –
N#Cc1ccc(NC(=O)Nc2ccc(C#N)c(C(F)(F)F)c2)cc1C(F)(F)F [Compound 252, 1,3-bis(4-cyano-3-(trifluoromethyl)phenyl)urea] | 5.68 | – | 1.33 °C | –
N#Cc1ccc(NC(=O)Nc2ccc(C#N)cc2)cc1 [Compound 253, 1,3-bis(4-cyanophenyl)urea] | < 5.00 | 1.91 °C | – | –
N#Cc1ccc(NC(=O)Nc2ccc(F)cc2)cc1C(F)(F)F [Compound 254, 1-(4-cyano-3-(trifluoromethyl)phenyl)-3-(4-fluorophenyl)urea] | 5.40 | – | 1.84 °C | –
CN(C)CCc1cc(NC(=O)Nc2ccc(Cl)c(S(=O)(=O)C(F)(F)F)c2)ccc1C#N [Compound 284, 1-(4-chloro-3-((trifluoromethyl)sulfonyl)phenyl)-3-(4-cyano-3-(2-(dimethylamino)ethyl)phenyl)urea] | < 5.00 | – | 0.62 °C | –
N#Cc1ccc(NC(=O)Nc2ccc(Cl)c(S(=O)(=O)C(F)(F)F)c2)cc1CN1CCOCC1 [Compound 285, 1-(4-chloro-3-((trifluoromethyl)sulfonyl)phenyl)-3-(4-cyano-3-(morpholinomethyl)phenyl)urea] | 5.32 | – | 1.23 °C | -7.52 °C
N#Cc1ccc(NC(=O)Nc2ccc(Cl)c(S(=O)(=O)C(F)(F)F)c2)cc1CCN1CCOCC1 [Compound 286, 1-(4-chloro-3-((trifluoromethyl)sulfonyl)phenyl)-3-(4-cyano-3-(2-morpholinoethyl)phenyl)urea] | 5.23 | – | 1.64 °C | -6.23 °C
CN(C)CCc1ccc(NC(=O)Nc2ccc(C#N)cc2)cc1S(=O)(=O)C(F)(F)F [Compound 287, 1-(4-cyanophenyl)-3-(4-(2-(dimethylamino)ethyl)-3-((trifluoromethyl)sulfonyl)phenyl)urea] | < 5.00 | – | – | –
N#Cc1ccc(NC(=O)Nc2ccc(CN3CCOCC3)c(S(=O)(=O)C(F)(F)F)c2)cc1 [Compound 288, 1-(4-cyanophenyl)-3-(4-(morpholinomethyl)-3-((trifluoromethyl)sulfonyl)phenyl)urea] | 5.05 | – | 2.24 °C | 3.27 °C
CN(C)CCc1cc(NC(=O)Nc2ccc3c(c2)S(=O)(=O)C=C3)ccc1C#N [Compound 290, 1-(4-cyano-3-(2-(dimethylamino)ethyl)phenyl)-3-(1,1-dioxidobenzo[b]thiophen-6-yl)urea] | < 5.00 | – | -0.3 °C | 3.28 °C
N#Cc1ccc(NC(=O)Nc2ccc3c(c2)S(=O)(=O)C=C3)cc1OCCN1CCOCC1 [Compound 295, 1-(4-cyano-3-(2-morpholinoethoxy)phenyl)-3-(1,1-dioxidobenzo[b]thiophen-6-yl)urea] | < 5.00 | – | -0.03 °C | –
N#CC1CCC(NC(=O)Nc2ccc(Cl)c(C(F)(F)F)c2)CC1 (stereo not drawn) [Compound 300, 1-(4-chloro-3-(trifluoromethyl)phenyl)-3-(4-cyanocyclohexyl)urea] | < 5.00 | – | -0.73 °C | –

Further lines, with some results ahead:

pIC50 [1] | ΔTm at 12.5 µM [2, 4] | SMILES | ΔTm at 12.5 µM [2] | ΔTm at 25 µM [3]
< 5.00 | 2.22 °C | N#Cc1ccc(NC(=O)Nc2ccc(F)cc2)cc1 [Compound 255, 1-(4-cyanophenyl)-3-(4-fluorophenyl)urea] | – | –
5.64 | 1.06 °C | Cc1cc(NC(=O)Nc2ccc3c(c2)S(=O)(=O)C=C3)ccc1C#N [Compound 261, 1-(4-cyano-3-methylphenyl)-3-(1,1-dioxidobenzo[b]thiophen-6-yl)urea] | – | –
5.58 | 1.27 °C | CC(C)(C)c1cc(NC(=O)Nc2ccc3c(c2)S(=O)(=O)C=C3)ccc1C#N [Compound 264, 1-(3-(tert-butyl)-4-cyanophenyl)-3-(1,1-dioxidobenzo[b]thiophen-6-yl)urea] | – | –
< 5.00 | -0.19 °C | N#Cc1cccc(NC(=O)Nc2ccc3c(c2)S(=O)(=O)C=C3)n1 [Compound 267, 1-(6-cyanopyridin-2-yl)-3-(1,1-dioxidobenzo[b]thiophen-6-yl)urea] | – | –
5.11 | 0.39 °C | N#Cc1cnc(NC(=O)Nc2ccc3c(c2)S(=O)(=O)C=C3)cn1 [Compound 268, 1-(5-cyanopyrazin-2-yl)-3-(1,1-dioxidobenzo[b]thiophen-6-yl)urea] | – | –
< 5.00 | 0.77 °C | N#Cc1ncc(NC(=O)Nc2ccc3c(c2)S(=O)(=O)C=C3)cn1 [Compound 269] | – | –
< 5.00 | 0.01 °C | N#Cc1cnc(NC(=O)Nc2ccc3c(c2)S(=O)(=O)C=C3)nc1 [Compound 270, 1-(5-cyanopyrimidin-2-yl)-3-(1,1-dioxidobenzo[b]thiophen-6-yl)urea] | – | –
< 5.00 | 0.02 °C | N#Cc1ccc(NC(=O)Nc2ccc3c(c2)C=CS3(=O)=O)o1 [Compound 271, 1-(5-cyanofuran-2-yl)-3-(1,1-dioxidobenzo[b]thiophen-5-yl)urea] | – | –
5.25 | -2.3 °C | N#Cc1ccc(NC(=O)Nc2ccc3c(c2)S(=O)(=O)c2ccccc2-3)cc1 [Compound 277, 1-(4-cyanophenyl)-3-(5,5-dioxidodibenzo[b,d]thiophen-3-yl)urea] | – | –
– | -0.95 °C | N#Cc1ccc(NC(=O)Nc2ccc3c(c2)C(=O)CCC3)cc1 [Compound 278, 1-(4-cyanophenyl)-3-(8-oxo-5,6,7,8-tetrahydronaphthalen-2-yl)urea] | – | –
< 5.00 | 1.29 °C | N#Cc1ccc(NC(=O)Nc2ccc3c(c2)S(=O)(=O)CCC3)cc1 [Compound 279] | – | –
– | 0.01 °C | N#Cc1ccc(NC(=O)Nc2cccc(-c3nnn[nH]3)c2)cc1 [Compound 280, 1-(3-(1H-tetrazol-5-yl)phenyl)-3-(4-cyanophenyl)urea] | – | –
– | -1.92 °C | CC(=O)N1CCc2ccc(NC(=O)Nc3ccc(C#N)cc3)cc21 [Compound 281, 1-(1-acetylindolin-6-yl)-3-(4-cyanophenyl)urea] | – | –
– | -0.97 °C | N#Cc1ccc(NC(=O)Nc2ccc3c(c2)CCCS3(=O)=O)cc1 [Compound 282, 1-(4-cyanophenyl)-3-(1,1-dioxidothiochroman-6-yl)urea] | – | –
< 5.00 | 0.1 °C | N#Cc1ccc(NC(=O)Nc2ccc3c(c2)C(=O)CC3)cc1 [Compound 283, 1-(4-cyanophenyl)-3-(3-oxo-2,3-dihydro-1H-inden-5-yl)urea] | – | –
5.05 | 2.6 °C | N#Cc1ccc(NC(=O)Nc2ccc(CCN3CCOCC3)c(S(=O)(=O)C(F)(F)F)c2)cc1 [Compound 289, 1-(4-cyanophenyl)-3-(4-(2-morpholinoethyl)-3-((trifluoromethyl)-sulfonyl)phenyl)urea] | – | 3.2 °C
